System: mites
Experiment: Field trial of mite control on field beans variety Paloma, foliar spray
Type: in vivo
Conditions: for Observed, % control of mites 6DAA3: 6 days after application 3, rate g/ha: abamectin 6.7, cyflumetofen 150, combination 6.7 & 150, percentage compared to non-treated control; for Observed, % control of mites 14DAA3: fourteen days after application 3, rate g/ha: abamectin 6.7, cyflumetofen 150, combination 6.7 & 150, percentage compared to non-treated control; for Observed, % control of mites 6DAA1: six days after application 1, rate g/ha: abamectin 6.7, cyflumetofen 150, combination 6.7 & 150, percentage compared to non-treated control; for Observed, % control of mites 6DAA2: six days after application 2, rate g/ha: abamectin 6.7, cyflumetofen 150, combination 6.7 & 150, percentage compared to non-treated control
Description: The action to be expected E for a given active ingredient combination obeys the so-called COLBY formula and can be calculated as follows (COLBY, S. R. “Calculating synergistic and antagonistic responses of herbicide combination”. Weeds, Vol. 15, pages 20-22; 1967): • ppm=milligrams of active ingredient (=a.i.) per liter of spray mixture • X=% action by active ingredient A) using p ppm of active ingredient • Y=% action by active ingredient B) using q ppm of active ingredient.
According to COLBY, the expected (additive) action of active ingredients A)+B) using p+q ppm of active ingredient is
If the action actually observed (O is greater than the expected action (E), then the action of the combination is super-additive, i.e. there is a synergistic effect.
Trials are conducted on field beans variety Paloma to determine the effects of the present combination.
The trials are carried out on a plot is 1 m^2, with three replicates for each trial and spray volume ranges from 1500-1600 l/ha.
The first application of the pesticide formulation (whether solo or combination) is at pest threshold as foliar spray (at 35 days after planting). Thereafter the second and third foliar applications are at 42 and 49 days after planting.
The assessment of the mite control is carried out on the basis of number of mites on five leaves for each plot at the times indicated in the table (i.e., six days after application 1 (6DAA1), six days after application 2 (6DAA2), 6 days after application 3 (6DAA3), and fourteen days after application 3 (14DAA3)). The values are given as a percentage compared to a non-treated control.
The Table below also provides the expected % control for the combination based on the Colby formula.

| Compound | Observed, % control of mites 6DAA3 [%] | Observed, % control of mites 14DAA3 [%] | Observed, % control of mites 6DAA1 [%] | Observed, % control of mites 6DAA2 [%] |
| --- | --- | --- | --- | --- |
| COCCOC(=O)C(C#N)(C(=O)c1ccccc1C(F)(F)F)c1ccc(C(C)(C)C)cc1 (centres unmarked) [cyflumetofen] | 26 | 32 | 79 | 64 |
| abamectin | 59 | 66 | 92 | 32 |
